Experimental data from US10781224B2, “Bis(oxymethyl)phosphinic acid and biogenic metal salts thereof as regulators of plant growth and development” (priority 2016, dated 2020).

Legend:
[1] = system: winter wheat (Vershin variety); test: Winter wheat seed treatment with BHMPA salts: germinating power (length and mass of roots and sprouts); assay type: in vivo
Method in brief: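 Seeds (50 per Petri dish on two layers of filter paper) soaked 1 h in BHMPA or its Ca, Mg, Na, Co, Mn, Cu or Zn salts at 1·10^−6-1·10^−12%, with water controls. Germination energy read on day 4, germination on day 8 (wheat) or day 7 (rice, corn), as % means of four replicates. Germinating power taken as root and sprout length plus wet and dry mass per 100 seedlings.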

rice (Diamant variety) = test: Rice seed treatment with BHMPA salts: germination energy and germination rate; assay type: in vivo
Method in brief: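 Corn, winter wheat and rice seeds (50 per dish, on filter paper) were soaked for 1 h in BHMPA or its metal salts at 1·10^−6-1·10^−12%, with water as control. Germination energy was read on day 4 and germination rate on day 8 for wheat and day 7 for rice and corn, following GOST 12038-84, as the mean of four replicates.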

[2] = comparative study, 1·10^−9% solution
[3] = rice seed treatment, solution 1 · 10^−11%
[4] = seed treatment, concentration 1 · 10^−6%
[5] = seed treatment, concentration 1 · 10^−7%
[6] = seed treatment, concentration 1 · 10^−8%
[7] = seed treatment, concentration 1 · 10^−9%
[8] = seed treatment, concentration 1 · 10^−10%
[9] = seed treatment, concentration 1 · 10^−11%
[10] = seed treatment, concentration 1 · 10^−12%

With `O=P([O-])(CO)CO.[Na+]` [Na-salt, Sodium BHMPA Salt] the “effectiveness on germinating power” value ([1]; 1·10^−6% and 1·10^−12% solutions) was “marginally effective”, the Length, root ([1]; 1·10^−6% solution) was 5.0 cm and the “Length, root, + % to control” value ([1]; 1·10^−6% solution) was −5.7%. For the same molecule, the Length, sprout ([1]; 1·10^−6% solution) was 6.0 cm, the “Length, sprout, + % to control” value ([1]; 1·10^−6% solution) was −1.6% and the Mass, dry, root ([1]; 1·10^−6% solution) was 0.37 g/100 plantlings. The “Mass, dry, root, + % to control” value ([1]; 1·10^−6% solution) was −10%, the Mass, dry, sprout ([1]; 1·10^−6% solution) was 0.54 g/100 plantlings and the “Mass, dry, sprout, + % to control” value ([1]; 1·10^−6% solution) was −3.6%. For the same molecule, the Mass, wet, root ([1]; 1·10^−6% solution) was 2.35 g/100 plantlings, the “Mass, wet, root, + % to control” value ([1]; 1·10^−6% solution) was −3.7% and the Mass, wet, sprout ([1]; 1·10^−6% solution) was 4.51 g/100 plantlings. The “Mass, wet, sprout, + % to control” value ([1]; 1·10^−6% solution) was −3.6%, the Length, root ([1]; 1·10^−7% solution) was 5.3 cm and the “Length, root, + % to control” value ([1]; 1·10^−7% solution) was 0%. For the same molecule, the Length, sprout ([1]; 1·10^−7% solution) was 6.3 cm, the “Length, sprout, + % to control” value ([1]; 1·10^−7% solution) was 3.3% and the Mass, dry, root ([1]; 1·10^−7% solution) was 0.45 g/100 plantlings. The “Mass, dry, root, + % to control” value ([1]; 1·10^−7% solution) was 10%, the Mass, dry, sprout ([1]; 1·10^−7% solution) was 0.56 g/100 plantlings and the “Mass, dry, sprout, + % to control” value ([1]; 1·10^−7% solution) was 0%. The Mass, wet, root ([1]; 1·10^−7% solution) was 2.58 g/100 plantlings, the “Mass, wet, root, + % to control” value ([1]; 1·10^−7% solution) was 5.7% and the Mass, wet, sprout ([1]; 1·10^−7% solution) was 5.03 g/100 plantlings. The “Mass, wet, sprout, + % to control” value ([1]; 1·10^−7% solution) was 7.5%, the Length, root ([1]; 1·10^−8% solution) was 5.6 cm and the “Length, root, + % to control” value ([1]; 1·10^−8% solution) was 5.7%. For the same molecule, the Length, sprout ([1]; 1·10^−8% solution) was 6.7 cm, the “Length, sprout, + % to control” value ([1]; 1·10^−8% solution) was 10% and the Mass, dry, root ([1]; 1·10^−8% solution) was 0.47 g/100 plantlings. The “Mass, dry, root, + % to control” value ([1]; 1·10^−8% solution) was 14.6%, the Mass, dry, sprout ([1]; 1·10^−8% solution) was 0.63 g/100 plantlings and the “Mass, dry, sprout, + % to control” value ([1]; 1·10^−8% solution) was 12.5%. The Mass, wet, root ([1]; 1·10^−8% solution) was 2.73 g/100 plantlings, the “Mass, wet, root, + % to control” value ([1]; 1·10^−8% solution) was 12% and the Mass, wet, sprout ([1]; 1·10^−8% solution) was 5.37 g/100 plantlings. The “Mass, wet, sprout, + % to control” value ([1]; 1·10^−8% solution) was 15%, the Length, root ([1]; 1·10^−9% solution) was 5.7 cm and the “Length, root, + % to control” value ([1]; 1·10^−9% solution) was 7.5%. The Length, sprout ([1]; 1·10^−9% solution) was 6.9 cm, the “Length, sprout, + % to control” value ([1]; 1·10^−9% solution) was 13% and the Mass, dry, root ([1]; 1·10^−9% solution) was 0.56 g/100 plantlings. For the same molecule, the “Mass, dry, root, + % to control” value ([1]; 1·10^−9% solution) was 36.5%, the Mass, dry, sprout ([1]; 1·10^−9% solution) was 0.69 g/100 plantlings and the “Mass, dry, sprout, + % to control” value ([1]; 1·10^−9% solution) was 23%. The Mass, wet, root ([1]; 1·10^−9% solution) was 3.21 g/100 plantlings, the “Mass, wet, root, + % to control” value ([1]; 1·10^−9% solution) was 31.5% and the Mass, wet, sprout ([1]; 1·10^−9% solution) was 5.41 g/100 plantlings. The “Mass, wet, sprout, + % to control” value ([1]; 1·10^−9% solution) was 15.6%, the Length, root ([1]; 1·10^−10% solution) was 5.6 cm and the “Length, root, + % to control” value ([1]; 1·10^−10% solution) was 5.7%. The Length, sprout ([1]; 1·10^−10% solution) was 6.5 cm, the “Length, sprout, + % to control” value ([1]; 1·10^−10% solution) was 6.5% and the Mass, dry, root ([1]; 1·10^−10% solution) was 0.46 g/100 plantlings. The “Mass, dry, root, + % to control” value ([1]; 1·10^−10% solution) was 12%, the Mass, dry, sprout ([1]; 1·10^−10% solution) was 0.61 g/100 plantlings and the “Mass, dry, sprout, + % to control” value ([1]; 1·10^−10% solution) was 9%. The Mass, wet, root ([1]; 1·10^−10% solution) was 2.66 g/100 plantlings, the “Mass, wet, root, + % to control” value ([1]; 1·10^−10% solution) was 9% and the Mass, wet, sprout ([1]; 1·10^−10% solution) was 5.33 g/100 plantlings. The “Mass, wet, sprout, + % to control” value ([1]; 1·10^−10% solution) was 14%, the Length, root ([1]; 1·10^−11% solution) was 5.5 cm and the “Length, root, + % to control” value ([1]; 1·10^−11% solution) was 3.8%. For the same molecule, the Length, sprout ([1]; 1·10^−11% solution) was 6.4 cm, the “Length, sprout, + % to control” value ([1]; 1·10^−11% solution) was 5% and the Mass, dry, root ([1]; 1·10^−11% solution) was 0.43 g/100 plantlings. For the same molecule, the “Mass, dry, root, + % to control” value ([1]; 1·10^−11% solution) was 5%, the Mass, dry, sprout ([1]; 1·10^−11% solution) was 0.60 g/100 plantlings and the “Mass, dry, sprout, + % to control” value ([1]; 1·10^−11% solution) was 7%. For the same molecule, the Mass, wet, root ([1]; 1·10^−11% solution) was 2.57 g/100 plantlings, the “Mass, wet, root, + % to control” value ([1]; 1·10^−11% solution) was 5.3% and the Mass, wet, sprout ([1]; 1·10^−11% solution) was 5.11 g/100 plantlings. For the same molecule, the “Mass, wet, sprout, + % to control” value ([1]; 1·10^−11% solution) was 9%, the Length, root ([1]; 1·10^−12% solution) was 5.4 cm and the “Length, root, + % to control” value ([1]; 1·10^−12% solution) was 2%. The Length, sprout ([1]; 1·10^−12% solution) was 6.3 cm, the “Length, sprout, + % to control” value ([1]; 1·10^−12% solution) was 3.3% and the Mass, dry, root ([1]; 1·10^−12% solution) was 0.42 g/100 plantlings. For the same molecule, the “Mass, dry, root, + % to control” value ([1]; 1·10^−12% solution) was 2%, the Mass, dry, sprout ([1]; 1·10^−12% solution) was 0.58 g/100 plantlings and the “Mass, dry, sprout, + % to control” value ([1]; 1·10^−12% solution) was 3.6%. The Mass, wet, root ([1]; 1·10^−12% solution) was 2.41 g/100 plantlings, the “Mass, wet, root, + % to control” value ([1]; 1·10^−12% solution) was −1.2% and the Mass, wet, sprout ([1]; 1·10^−12% solution) was 5.03 g/100 plantlings. The “Mass, wet, sprout, + % to control” value ([1]; 1·10^−12% solution) was 7.5%, the Length, root [1, 2] was 8.7 cm and the “Length, root, + % to control” value [1, 2] was 0%. For the same molecule, the Length, sprout [1, 2] was 6.4 cm, the “Length, sprout, + % to control” value [1, 2] was 3% and the Mass, dry, root [1, 2] was 0.64 g/100 plantlings. For the same molecule, the “Mass, dry, root, + % to control” value [1, 2] was 3%, the Mass, dry, sprout [1, 2] was 0.53 g/100 plantlings and the “Mass, dry, sprout, + % to control” value [1, 2] was 4%. For the same molecule, the Mass, wet, root [1, 2] was 4.19 g/100 plantlings, the “Mass, wet, root, + % to control” value [1, 2] was 16% and the Mass, wet, sprout [1, 2] was 4.73 g/100 plantlings. For the same molecule, the “Mass, wet, sprout, + % to control” value [1, 2] was 19%, the “Germination energy, %” value (rice (Diamant variety); [3]) was 85.0% and the “Germination rate, %” value (rice (Diamant variety); [3]) was 92.0%. For the same molecule, the Germination energy (rice (Diamant variety); rice, 1·10^−11% solution) was 84.0%, the Germination rate (rice (Diamant variety); rice, 1·10^−11% solution) was 90.3% and the Germination energy (rice (Diamant variety); [4]) was 74.7%. It also gave a Germination rate (rice (Diamant variety); [4]) of 80.3%, a Germination energy (rice (Diamant variety); [5]) of 76.7% and a Germination rate (rice (Diamant variety); [5]) of 82.8%. The Germination energy (rice (Diamant variety); [6]) was 78.3%, the Germination rate (rice (Diamant variety); [6]) was 84.0% and the Germination energy (rice (Diamant variety); [7]) was 80.0%. For the same molecule, the Germination rate (rice (Diamant variety); [7]) was 86.3%, the Germination energy (rice (Diamant variety); [8]) was 82.3% and the Germination rate (rice (Diamant variety); [8]) was 88.0%. The Germination energy (rice (Diamant variety); [9]) was 84.0%, the Germination rate (rice (Diamant variety); [9]) was 90.3% and the Germination energy (rice (Diamant variety); [10]) was 79.0%. For the same molecule, the Germination rate (rice (Diamant variety); [10]) was 85.3%.
